{
  "source": "paper PMC11396129",
  "about": "“Oxindole–benzothiazole hybrids as CDK2 inhibitors and anticancer agents: design, synthesis and biological evaluation” (BMC Chemistry, 2024)",
  "key": {"[1]": {"target": "CDK1 (Homo sapiens, UniProt P06493)", "sequence (P06493 whole entry, species assumed)": "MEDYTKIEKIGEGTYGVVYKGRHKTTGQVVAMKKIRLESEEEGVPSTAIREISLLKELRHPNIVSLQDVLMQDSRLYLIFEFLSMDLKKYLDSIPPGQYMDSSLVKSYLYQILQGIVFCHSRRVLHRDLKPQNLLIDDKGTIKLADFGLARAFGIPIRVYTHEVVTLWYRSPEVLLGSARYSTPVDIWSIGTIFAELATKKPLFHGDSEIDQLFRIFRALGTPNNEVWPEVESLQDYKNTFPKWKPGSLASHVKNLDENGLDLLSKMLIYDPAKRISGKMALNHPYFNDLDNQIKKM", "sequence (P14635 whole entry partner, species assumed)": "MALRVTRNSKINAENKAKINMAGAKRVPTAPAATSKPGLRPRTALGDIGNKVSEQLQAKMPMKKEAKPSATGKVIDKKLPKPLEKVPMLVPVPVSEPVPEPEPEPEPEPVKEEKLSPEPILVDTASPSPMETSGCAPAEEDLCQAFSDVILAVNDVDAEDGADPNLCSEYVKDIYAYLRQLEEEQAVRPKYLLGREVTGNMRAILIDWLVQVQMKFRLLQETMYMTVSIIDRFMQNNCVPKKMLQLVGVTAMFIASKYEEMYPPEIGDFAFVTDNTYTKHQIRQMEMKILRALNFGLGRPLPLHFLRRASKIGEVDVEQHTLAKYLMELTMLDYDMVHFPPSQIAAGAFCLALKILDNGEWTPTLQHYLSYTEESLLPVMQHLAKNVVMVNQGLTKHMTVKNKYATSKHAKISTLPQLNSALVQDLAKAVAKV", "experiment": "Kinase inhibitory activity on CDK1", "type": "biochemical", "details": "mean of two independent experiments ± SD"}, "[2]": {"test_system": "DU145 prostate cancer cell line", "experiment": "Cell cycle analysis (PI flow cytometry)", "type": "cell-based, human", "details": "DU145, 9o at its GI50 concentration, 48h", "experimental": "Concurrently, there is a decline in the % of cells in the G2 phase from 22.20% in control cells to 20.94% in 9o treated cells.\n(§1) DU145 cancer cell line derived from prostate cancer was treated with the oxindole–benzothiazole conjugate 9o at its GI50. This was followed by treatment of cells according to the reported procedure and the percentage of cells in each stage of the cell cycle was identified and the percentage of cells in the apoptotic and necrotic stages were detected (for further details see additional file 1: analysis of cell cycle distribution; apoptosis assay).\n(§2) 6. Analysis of cell cycle distribution\n(§3) DU-145: Prostate cancer was obtained from Nawah Scientific Inc., (Mokatam, Cairo, Egypt).\nCells were maintained in DMEM media supplemented with […] of streptomycin, 100 units/mL of penicillin and 10% of heat-inactivated fetal bovine serum in humidified, 5% (v/v) CO2 atmosphere at 37 °C. After treatment with 9o for 48h, cells (10^5 cells) are collected by trypsinization and washed twice with ice-cold PBS (pH 7.4). Cells are re-suspended in two milliliters of 60% ice-cold ethanol and incubated at 4 °C for 1h for fixation. Fixed cells are washed twice again with PBS (pH 7.4) and re-suspended in 1 mL of PBS containing 50 μg/mL RNAase A and 10 μg/mL propidium iodide (PI). After 20 min of incubation in dark at 37 °C, cells are analyzed for DNA contents using flow cytometry analysis using FL2 (λex/em 535/617 nm) signal detector (ACEA Novocyte™ flowcytometer, ACEA Biosciences Inc., San Diego, CA, USA). For each sample, 12,000 events are acquired. […]"}, "[3]": {"target": "VEGFR-2 (Homo sapiens, UniProt P35968)", "sequence (P35968 20-1356, species assumed)": "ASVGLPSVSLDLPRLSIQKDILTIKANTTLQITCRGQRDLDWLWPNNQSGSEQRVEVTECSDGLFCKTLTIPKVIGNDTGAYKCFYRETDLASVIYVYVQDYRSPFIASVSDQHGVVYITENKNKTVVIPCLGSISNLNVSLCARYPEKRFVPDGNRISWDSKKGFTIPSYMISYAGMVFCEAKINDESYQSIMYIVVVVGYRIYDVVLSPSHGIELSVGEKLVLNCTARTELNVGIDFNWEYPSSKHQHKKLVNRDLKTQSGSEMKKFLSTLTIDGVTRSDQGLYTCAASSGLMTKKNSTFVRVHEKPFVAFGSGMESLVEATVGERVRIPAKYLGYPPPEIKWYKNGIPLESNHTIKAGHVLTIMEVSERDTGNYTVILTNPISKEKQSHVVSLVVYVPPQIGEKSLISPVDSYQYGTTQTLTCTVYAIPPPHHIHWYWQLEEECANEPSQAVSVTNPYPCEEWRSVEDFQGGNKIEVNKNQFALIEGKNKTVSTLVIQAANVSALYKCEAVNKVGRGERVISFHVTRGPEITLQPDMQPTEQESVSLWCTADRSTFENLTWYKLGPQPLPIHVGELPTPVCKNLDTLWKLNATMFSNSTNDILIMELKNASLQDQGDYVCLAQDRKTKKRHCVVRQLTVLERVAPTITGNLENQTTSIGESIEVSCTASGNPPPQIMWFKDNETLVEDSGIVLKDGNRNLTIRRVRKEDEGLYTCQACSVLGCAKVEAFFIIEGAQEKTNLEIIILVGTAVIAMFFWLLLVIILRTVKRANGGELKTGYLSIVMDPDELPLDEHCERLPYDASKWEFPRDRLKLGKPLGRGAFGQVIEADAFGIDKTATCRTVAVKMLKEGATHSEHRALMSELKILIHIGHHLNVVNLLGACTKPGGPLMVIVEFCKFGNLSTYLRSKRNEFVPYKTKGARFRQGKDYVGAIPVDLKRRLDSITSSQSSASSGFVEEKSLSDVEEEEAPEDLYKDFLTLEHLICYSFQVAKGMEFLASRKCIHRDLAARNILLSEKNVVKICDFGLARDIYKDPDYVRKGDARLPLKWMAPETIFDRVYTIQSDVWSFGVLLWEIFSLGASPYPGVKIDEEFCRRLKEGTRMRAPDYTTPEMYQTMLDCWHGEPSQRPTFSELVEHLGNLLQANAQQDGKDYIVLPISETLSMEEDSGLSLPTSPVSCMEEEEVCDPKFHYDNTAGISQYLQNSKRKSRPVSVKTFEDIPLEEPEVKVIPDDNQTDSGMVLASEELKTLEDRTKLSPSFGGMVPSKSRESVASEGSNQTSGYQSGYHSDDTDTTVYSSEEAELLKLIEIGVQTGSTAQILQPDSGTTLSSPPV", "experiment": "Kinase inhibitory activity on VEGFR-2", "type": "biochemical", "details": "mean of two independent experiments ± SD"}, "[4]": {"target": "FGFR-1 (Homo sapiens, UniProt P11362)", "sequence (P11362 22-822, species assumed)": "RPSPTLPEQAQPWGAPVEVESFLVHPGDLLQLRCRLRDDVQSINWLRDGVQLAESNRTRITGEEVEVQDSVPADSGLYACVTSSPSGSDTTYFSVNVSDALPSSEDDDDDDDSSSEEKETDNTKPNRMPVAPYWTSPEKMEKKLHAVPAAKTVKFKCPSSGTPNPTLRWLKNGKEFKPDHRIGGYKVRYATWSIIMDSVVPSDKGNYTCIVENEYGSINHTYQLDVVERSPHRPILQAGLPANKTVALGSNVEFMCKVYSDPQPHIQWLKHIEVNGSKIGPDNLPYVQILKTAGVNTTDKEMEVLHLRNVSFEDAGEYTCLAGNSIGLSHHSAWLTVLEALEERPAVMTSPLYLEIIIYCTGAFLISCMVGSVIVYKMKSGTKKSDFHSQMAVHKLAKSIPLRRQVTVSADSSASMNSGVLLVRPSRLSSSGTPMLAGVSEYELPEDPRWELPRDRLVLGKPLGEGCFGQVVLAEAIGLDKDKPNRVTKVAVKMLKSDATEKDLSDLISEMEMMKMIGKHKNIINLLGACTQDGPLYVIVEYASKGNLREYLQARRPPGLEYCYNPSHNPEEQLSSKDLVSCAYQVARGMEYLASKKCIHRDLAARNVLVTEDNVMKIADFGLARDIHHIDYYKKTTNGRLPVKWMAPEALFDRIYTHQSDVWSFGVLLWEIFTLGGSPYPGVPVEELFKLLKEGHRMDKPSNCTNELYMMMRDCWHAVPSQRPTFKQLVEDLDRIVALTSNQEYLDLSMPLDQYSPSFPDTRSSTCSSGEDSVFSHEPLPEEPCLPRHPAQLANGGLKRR", "experiment": "Kinase inhibitory activity on FGFR-1", "type": "biochemical", "details": "mean of two independent experiments ± SD"}, "[5]": {"target": "CDK5 (Homo sapiens, UniProt Q00535)", "sequence (Q00535 whole entry, species assumed)": "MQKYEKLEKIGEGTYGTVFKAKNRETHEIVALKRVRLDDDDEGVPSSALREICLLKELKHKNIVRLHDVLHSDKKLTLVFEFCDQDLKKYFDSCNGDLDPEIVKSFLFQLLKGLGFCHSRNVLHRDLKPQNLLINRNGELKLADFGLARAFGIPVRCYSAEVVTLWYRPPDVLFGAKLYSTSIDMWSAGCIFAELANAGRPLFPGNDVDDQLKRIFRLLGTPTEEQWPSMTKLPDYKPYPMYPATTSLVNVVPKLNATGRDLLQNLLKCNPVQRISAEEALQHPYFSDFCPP", "sequence (Q15078 99-307 partner limits assumed, species assumed)": "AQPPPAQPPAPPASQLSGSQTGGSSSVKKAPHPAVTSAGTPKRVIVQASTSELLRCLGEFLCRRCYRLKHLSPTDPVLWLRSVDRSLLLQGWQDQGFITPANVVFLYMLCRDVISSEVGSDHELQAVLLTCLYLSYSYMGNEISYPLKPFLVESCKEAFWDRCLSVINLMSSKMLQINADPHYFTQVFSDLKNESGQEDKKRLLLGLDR", "experiment": "Kinase inhibitory activity on CDK5", "type": "biochemical", "details": "mean of two independent experiments ± SD"}, "[6]": {"test_system": "DU145 prostate cancer cell line", "experiment": "Apoptosis assay (Annexin V-FITC/PI flow cytometry)", "type": "cell-based, human", "details": "DU145, 9o at its GI50 concentration, 48h", "experimental": "as §1, §2, §3\nCells were maintained in DMEM media supplemented with […] of streptomycin, 100 units/mL of penicillin and 10% of heat-inactivated fetal bovine serum in humidified, 5% (v/v) […]\nCO2 atmosphere at 37 °C. […]\nApoptosis and necrosis cell populations are determined using Annexin V-FITC apoptosis detection kit (Abcam Inc., Cambridge Science Park, Cambridge, UK) coupled with 2 fluorescent channels flowcytometry. After treatment with test compounds for 48h, cells (10^5 cells) are collected by trypsinization and washed twice with ice-cold PBS (pH 7.4). Then, cells are incubated in dark with 0.5 ml of Annexin V-FITC/PI solution for 30 min in dark at room temperature according to manufacturer protocol. After staining, cells are injected via ACEA Novocyte™ flowcytometer (ACEA Biosciences Inc., San Diego, CA, USA) and analysed for FITC and PI fluorescent signals using FL1 and FL2 signal detector, respectively […]\nevents are acquired and positive FITC and/or PI cells are quantified by quadrant analysis and […]"}},
  "data": [
    {"compound": "COc1ccc2c(c1)C(=NNC(=O)COc1cc(-c3nc4ccccc4s3)ccc1OC)C(=O)N2", "note": "[Compound 9o, 2-(5-(Benzo[d]thiazol-2-yl)-2-methoxyphenoxy)-N′-(5-methoxy-2-oxoindolin-3-ylidene)acetohydrazide]", "values": [
      {"measurement": "IC50", "setting": "[1]", "result": "1.19 ± 0.1", "unit": "µM"},
      {"measurement": "%G0/G1", "setting": "[2]", "result": 61.40, "unit": "%"},
      {"measurement": "%G2/M", "setting": "[2]", "result": 20.94, "unit": "%"},
      {"measurement": "%S", "setting": "[2]", "result": 17.66, "unit": "%"},
      {"measurement": "%Sub-G1", "setting": "[2]", "result": 0.41, "unit": "%"},
      {"measurement": "IC50", "setting": "[3]", "result": "> 10", "unit": "µM"},
      {"measurement": "IC50", "setting": "[4]", "result": "> 10", "unit": "µM"},
      {"measurement": "IC50", "setting": "[5]", "result": "0.34 ± 0.02", "unit": "µM"},
      {"measurement": "% early apoptotic cells (Q2–4)", "setting": "[6]", "result": 0.28, "unit": "%"},
      {"measurement": "% of cells in the late apoptotic stage (Q2–2)", "setting": "[6]", "result": 5.02, "unit": "%"},
      {"measurement": "% of cells in the necrotic stage (Q2–1)", "setting": "[6]", "result": 2.63, "unit": "%"},
      {"measurement": "% viable cells (Q2–3)", "setting": "[6]", "result": 92.07, "unit": "%"}
    ]}
  ]
}
